{
  "source": "patent US20260226026A1",
  "about": "“COMPOUND AS CTPS1 INHIBITOR” (Hangzhou Innogate Pharma Co., Ltd., priority 2023, published 2026)",
  "key": {"[1]": {"target": "T1, hCTPS1 enzyme (Homo sapiens, UniProt P17812)", "T1 sequence (P17812 1-591)": "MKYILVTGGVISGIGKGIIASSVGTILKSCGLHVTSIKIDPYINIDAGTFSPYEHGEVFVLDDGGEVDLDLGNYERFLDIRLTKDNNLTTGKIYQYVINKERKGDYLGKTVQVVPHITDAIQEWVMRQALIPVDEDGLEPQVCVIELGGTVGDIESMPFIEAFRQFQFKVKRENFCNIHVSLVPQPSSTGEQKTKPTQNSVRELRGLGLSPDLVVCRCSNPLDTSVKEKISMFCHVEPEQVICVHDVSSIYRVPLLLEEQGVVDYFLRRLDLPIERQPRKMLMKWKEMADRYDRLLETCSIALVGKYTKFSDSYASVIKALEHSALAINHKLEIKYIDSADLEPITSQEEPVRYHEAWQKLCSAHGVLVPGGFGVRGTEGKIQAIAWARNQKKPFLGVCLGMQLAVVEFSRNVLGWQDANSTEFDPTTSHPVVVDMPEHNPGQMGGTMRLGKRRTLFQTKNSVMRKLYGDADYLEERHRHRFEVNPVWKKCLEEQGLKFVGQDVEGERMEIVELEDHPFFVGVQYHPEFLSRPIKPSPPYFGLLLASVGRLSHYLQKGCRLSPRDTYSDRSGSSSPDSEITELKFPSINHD", "experiment": "Inhibition of CTPS1 enzyme activity (ADP-Glo method)", "format": "biochemical", "details": "hCTPS1, 90 min reaction at 25° C.", "procedure": "The enzyme activity of CTPS1 was tested using the ADP-Glo method. Compounds were serially diluted in DMSO with 3-fold gradients across ten concentrations. Transfer 0.1 μL of diluted compound to a 384-well plate, centrifuge at 1000 rpm for 1 min. Add 2.5 μL of hCTPS1 enzyme working solution, centrifuge at 1000 rpm for 1 min, and incubate at 25° C. for 10 min. Add 2.5 μL of ATP & UTP solution and incubate at 25° C. for 10 min. Add 5 μL of substrate solution to initiate the reaction and incubate at 25° C. for 90 min. Add 10 μL of ADP-Glo solution to the 384-well plate, centrifuge at 1000 rpm for 1 min, incubate at 25° C. for 40 min, add 20 μL of detection solution, centrifuge at 1000 rpm for 1 min, and incubate at 25° C. for 60 min. […] were read using a BMG microplate reader. Inhibition rate (%) was calculated as follows: Inhibition rate (%)=[(DMSO control well signal−Compound well signal)/(DMSO control well signal−Blank control well signal)]×100%. IC50 values for compounds were analyzed by nonlinear regression in XLFit 5.5.0 software using the formula: Y=Bottom+(Top−Bottom)/(1+10^((LogIC50−X)*HillSlope)) where Y is the inhibition rate and X is the log value of compound concentration."}, "[2]": {"test_system": "Jurkat cells", "experiment": "Inhibition of Jurkat cell proliferation (CellTiter-Glo, 72 hours)", "format": "cell-based", "details": "Homo sapiens; Jurkat cells, 72 hours, CellTiter-Glo; read-out: Jurkat (IC50)", "procedure": "Select Jurkat cells in good growth condition and digest them with trypsin. Add fresh culture medium, mix thoroughly, and centrifuge at 1000 rpm for 5 minutes. Seed the cells into a 96-well plate at a density of 10,000 cells per well, and incubate overnight in a 37° C. incubator. On the following day, take out of the culture plate and treat the cells with compounds prepared in a five-fold serial dilution. Return the plate to the 37° C. incubator and continue incubation for 72 hours.\nAfter incubation, bring out the cell culture plate and equilibrate it to room temperature. Add 100 μL of CellTiter-Glo reagent to each well, shake in the dark for 2 minutes, and incubate for 10 minutes. Measure the luminescence using an Enspire plate reader. Calculate the inhibition rate using the following formula: Inhibition rate (%)=(1−(RLU_compound−RLU_blank)/(RLU_DMSO−RLU_blank))×100%. Plot the dose-response curve and calculate the IC50 value using XLFit."}, "[3]": {"experiment": "in vivo", "design": "species or system SD rats", "details": "male, SD, rat, po", "procedure": "Instrumentation: SCIEX Triple Quad 6500+ triple quadrupole liquid chromatography-mass spectrometry system (LC-MS/MS), operating software is Analyst 1.7.2 (Applied Biosystems, USA); ExionLC liquid chromatography system; Microsoft Excel was used for data calculation and processing. Pharmacokinetic parameters were calculated using the statistical moment method with WinNonlin 8.2 software. Key kinetic parameters included Tmax, T1/2, Cmax, AUC0-24 h etc. Column: Synergi 4 μm Fusion-RP 80 Å Luna C18 2 mm*50 mm, 4 μm; Column temperature: 40° C.; Mobile phase A: Water (0.1% formic acid); Mobile phase B: Acetonitrile; Flow rate: 0.8 mL/min; Gradient elution is adopted, the elution gradient is 0.10 min: 15% B; 1.60 min: 95% B; 1.90 min: 95% B; 1.91 min: 15% B; 2.20 min: 15% B. Injection volume: 1 μL.\nAnimals: 3 male SD rats with a weight range of 200-220 g were purchased and kept in the laboratory of the Experimental Animal Center for 3 days and then used. They were fasted for 12 hours predose and 4 hours after dosing. Drinking water was free during the test. After the rats were gavage, blood samples were taken according to the established time point.\nSolvent: 0.4% ethanol+0.4% Tween80+99.2% (0.5% methylcellulose M450). Preparation of the solution for intragastric administration: Compounds were accurately weighed and added to the solvent. The mixture was then subjected to vortex mixing and sonication until a homogeneous suspension was achieved, thereby preparing medicinal solutions of the desired concentrations.\nCompound samples: Typically, multiple structurally analogous compounds (with molecular weights differing by more than 2 units) were accurately weighed and administered together (cassette PK). This approach allows for the simultaneous screening of multiple compounds and comparison of their oral absorption rates. Single compound administration was also employed to study the pharmacokinetics of drug samples in rats.\nAfter intragastric administration, blood was collected from the jugular vein at 0.25, 0.5, 1, 2, 4, 8, 10 and 24 hours. Transfer 20 μL of plasma sample (for blank samples and internal standard blank samples, add 20 μL of blank plasma) to a 1.5 mL centrifuge tube, add 200 μL of internal standard solution (50% methanol in acetonitrile (concentration 100 ng/mL)) (for Double blank samples, add 200 μL of 50% methanol in acetonitrile solution). Vortex the samples for 5 minutes, then centrifuge at 14000 rpm and 4° C. for 5 minutes. Transfer 80 μL and add to 80 μL of water, mix uniformly, and submit for LC-MS/MS analysis.\nThe compounds were accurately weighed to prepare different concentrations, and quantitative analysis on mass spectrometry was performed to establish a standard curve, and then the concentration of the above-mentioned compound in the plasma was tested to obtain its concentration at different time points. All measurement data were collected and processed by relevant software, and the statistical moment method was used to calculate the pharmacokinetic parameters (mainly including kinetic parameters Tmax, T1/2, Cmax, AUC0-24 h etc)."}},
  "data": [
    {"compound": "CCOc1cncc(-c2ccc(NC(=O)C3(c4ccnc(NS(=O)(=O)C5CC5)n4)CCC(=C(F)C4COC4)CC3)nc2)n1", "note": "(stereo not drawn) [Compound 50]", "values": [
      {"measurement": "IC50", "setting": "[1]", "value": "< 0.025", "unit": "µM"},
      {"measurement": "IC50", "setting": "[2]", "value": "< 0.015", "unit": "µM"},
      {"measurement": "AUC(0-t)", "setting": "[3]; 2 mg/kg", "value": 2.16, "unit": "µg·h/mL"},
      {"measurement": "Cmax", "setting": "[3]; 2 mg/kg", "value": 1.02, "unit": "µg/mL"},
      {"measurement": "Tmax", "setting": "[3]; 2 mg/kg", "value": 0.25, "unit": "h"},
      {"measurement": "half-life", "setting": "[3]; 2 mg/kg", "value": 1.13, "unit": "h"}
    ]},
    {"compound": "CCOc1cncc(-c2ccc(NC(=O)C3(c4ccnc(NS(=O)(=O)C5CC5)n4)CCC(=C(F)C4CCOCC4)CC3)nc2)n1", "note": "(stereo not drawn) [Compound 52]", "values": [
      {"measurement": "IC50", "setting": "[1]", "value": "< 0.025", "unit": "µM"},
      {"measurement": "IC50", "setting": "[2]", "value": "< 0.015", "unit": "µM"},
      {"measurement": "AUC(0-t)", "setting": "[3]; 1.5 mg/kg", "value": 7.64, "unit": "µg·h/mL"},
      {"measurement": "Cmax", "setting": "[3]; 1.5 mg/kg", "value": 1.21, "unit": "µg/mL"},
      {"measurement": "Tmax", "setting": "[3]; 1.5 mg/kg", "value": 2, "unit": "h"},
      {"measurement": "half-life", "setting": "[3]; 1.5 mg/kg", "value": 2.01, "unit": "h"}
    ]},
    {"compound": "CCOc1cncc(-c2ccc(NC(=O)C3(c4ccnc(NS(=O)(=O)C5CC5)n4)CCC(=CCC(C)(C)O)CC3)nc2)n1", "note": "(stereo not drawn) [Compound 58]", "values": [
      {"measurement": "IC50", "setting": "[1]", "value": "< 0.025", "unit": "µM"},
      {"measurement": "IC50", "setting": "[2]", "value": "< 0.015", "unit": "µM"},
      {"measurement": "AUC(0-t)", "setting": "[3]; 3 mg/kg", "value": 25.1, "unit": "µg·h/mL"},
      {"measurement": "Cmax", "setting": "[3]; 3 mg/kg", "value": 4.54, "unit": "µg/mL"},
      {"measurement": "Tmax", "setting": "[3]; 3 mg/kg", "value": 2.17, "unit": "h"},
      {"measurement": "half-life", "setting": "[3]; 3 mg/kg", "value": 2.53, "unit": "h"}
    ]},
    {"compound": "CCOc1cncc(-c2ccc(NC(=O)C3(c4ccnc(NS(=O)(=O)C5CC5)n4)CCC(=CCC4COC4)CC3)nc2)n1", "note": "(stereo not drawn) [Compound 63]", "values": [
      {"measurement": "IC50", "setting": "[1]", "value": "< 0.025", "unit": "µM"},
      {"measurement": "IC50", "setting": "[2]", "value": "< 0.015", "unit": "µM"},
      {"measurement": "AUC(0-t)", "setting": "[3]; 3 mg/kg", "value": 37.6, "unit": "µg·h/mL"},
      {"measurement": "Cmax", "setting": "[3]; 3 mg/kg", "value": 4.82, "unit": "µg/mL"},
      {"measurement": "Tmax", "setting": "[3]; 3 mg/kg", "value": 2.33, "unit": "h"},
      {"measurement": "half-life", "setting": "[3]; 3 mg/kg", "value": 3.03, "unit": "h"}
    ]},
    {"compound": "CCOc1cncc(-c2ccc(NC(=O)C3(c4cncc(NS(=O)(=O)C5CC5)n4)CCC(=C(F)F)CC3)nc2)n1", "note": "(stereo not drawn) [Compound 68]", "values": [
      {"measurement": "IC50", "setting": "[1]", "value": "< 0.025", "unit": "µM"},
      {"measurement": "IC50", "setting": "[2]", "value": "< 0.015", "unit": "µM"},
      {"measurement": "AUC(0-t)", "setting": "[3]; 3 mg/kg", "value": 40.9, "unit": "µg·h/mL"},
      {"measurement": "Cmax", "setting": "[3]; 3 mg/kg", "value": 6.81, "unit": "µg/mL"},
      {"measurement": "Tmax", "setting": "[3]; 3 mg/kg", "value": 2.17, "unit": "h"},
      {"measurement": "half-life", "setting": "[3]; 3 mg/kg", "value": 1.83, "unit": "h"}
    ]},
    {"compound": "CCOc1cncc(-c2ccc(NC(=O)C3(c4ccnc(NS(=O)(=O)C5CC5)n4)CCC(=C(F)CC4COC4)CC3)nc2)n1", "note": "(stereo not drawn) [Compound 69]", "values": [
      {"measurement": "IC50", "setting": "[1]", "value": "< 0.05", "unit": "µM"},
      {"measurement": "IC50", "setting": "[2]", "value": "< 0.015", "unit": "µM"},
      {"measurement": "AUC(0-t)", "setting": "[3]; 2 mg/kg", "value": 11.3, "unit": "µg·h/mL"},
      {"measurement": "Cmax", "setting": "[3]; 2 mg/kg", "value": 2.33, "unit": "µg/mL"},
      {"measurement": "Tmax", "setting": "[3]; 2 mg/kg", "value": 1.83, "unit": "h"},
      {"measurement": "half-life", "setting": "[3]; 2 mg/kg", "value": 1.89, "unit": "h"}
    ]}
  ]
}
